The results in this text go back to US9511073B2, “Aromatic amides and uses thereof” (TAXIS Pharmaceuticals, Inc., priority 2011, dated 2016).

Structures are written as SMILES. Converted amounts (≈) assume the structure as drawn. Where only a bound is given, the exact number is not on record here.

The first assay has as its system Staphylococcus aureus (Isolate ID ATCC 29213). As to the kind of experiment: Bacterial assay: MIC by broth microdilution or agar dilution (CLSI), S. aureus ATCC 29213. The following applies: S. aureus (ATCC29213). The class given is cell-based. Here is the method:
Compounds are tested for antimicrobial activity by susceptibility testing in liquid or on solid media. Minimum inhibitory concentrations (MICs) for compounds against each strain are determined by the broth microdilution or agar dilution method according to the guidelines of the Clinical Laboratories and Standards Institute, formerly the National Committee for Clinical Laboratory Standards (Clinical Laboratories and Standards Institute. Methods for Dilution Antimicrobial Susceptibility Tests for Bacteria That Grow Aerobically; Approved Standard—Seventh Edition. Document M7-A7. CLSI, Wayne, Pa., 2006; Clinical Laboratories and Standards Institute). The bacterial strains tested include S. aureus (Staphylococcus aureus (Isolate ID ATCC 29213)) and an FtsZ mutant of this isolate (FtsZ-G196A Staphylococcus aureus (Isolate ID GG/190723/sa/1.2)). Compound MICs were determined to be in the following activity ranges “A” activity≦0.25 μg/mL; “B” activity>0.25 μg/mL-1.0 μg/mL; “C” activity>1.0 μg/mL-16 μg/mL; “D” activity>16 μg/mL and ND=not determined. The bracketed entries indicate entantiomer(s) and their activity.
Background: Dilution methods test growth across graded concentrations, often in twofold steps.
Turning to `NC(=O)c1c(F)ccc(OC(CCC(O)CO)c2nc(-c3ccc(C(F)(F)F)cc3)c(Br)o2)c1F` (single isomer, unassigned) [Compound 128, 3-((1-(5-bromo-4-(4-(trifluoromethyl)phenyl)oxazol-2-yl)-4,5-dihydroxypentyl)oxy)-2,6-difluorobenzamide (mixture of two diastereomeric pairs of enantiomers)], the “S. aureus MIC (μg/mL) Activity Range” value is reported as “B (activity>0.25 μg/mL-1.0 μg/mL)”.

The assay is the same for the next values; noted with them: Staphylococcus aureus, ATCC29213, read-out: S. aureus MIC (μg/mL) Activity Range, S. aureus (ATCC29213).
On to `CC(Oc1ccc(F)c(C(N)=O)c1F)c1nc(-c2ccc(Cl)cc2)c(Br)o1` (centres unmarked) [Compound 1], for which the MIC was less than 0.25 µg/mL.

On to `CC(Oc1ccc(F)c(C(N)=O)c1F)c1nc(Br)cs1` (centres unmarked) [Compound 2, 3-(1-(4-bromothiazol-2-yl)ethoxy)-2,6-difluorobenzamide], for which the MIC lay within 1 to 16 µg/mL (≈ 2.75 to 44.1 µM).

For the molecule `COc1ncc(-c2csc(C(C)Oc3ccc(F)c(C(N)=O)c3F)n2)s1` (centres unmarked) [Compound 3], the MIC was less than 0.25 µg/mL.

As to `CC(Oc1ccc(F)c(C(N)=O)c1F)c1nc(-c2ccc(Cl)cc2)co1` (centres unmarked) [Compound 4], the MIC was 1 to 16 µg/mL (≈ 2.64 to 42.2 µM).

Consider `CCOC(=O)C(Oc1ccc(F)c(C(N)=O)c1F)c1nc(-c2ccc(Cl)cc2)co1` (centres unmarked) [Compound 6, ethyl 2-(3-carbamoyl-2,4-difluorophenoxy)-2-(4-(4-chlorophenyl)oxazol-2-yl)acetate], for which the MIC was in the range of 1 to 16 µg/mL (≈ 2.29 to 36.6 µM).

With `C=CCc1oc(C(C)Oc2ccc(F)c(C(N)=O)c2F)nc1-c1ccc(Cl)cc1` (centres unmarked) [Compound 7], the MIC was in the range of 0.25 to 1 µg/mL (≈ 0.597 to 2.39 µM).

For the molecule `CCCc1oc(C(C)Oc2ccc(F)c(C(N)=O)c2F)nc1-c1ccccc1` (centres unmarked) [Compound 8], the MIC was in the range of 1 to 16 µg/mL (≈ 2.59 to 41.4 µM).

Consider `C=CCc1oc(C(C)Oc2ccc(F)c(C(N)=O)c2F)nc1-c1ccc(OC)cc1` (centres unmarked) [Compound 9], for which the MIC lay within 0.25 to 1 µg/mL (≈ 0.603 to 2.41 µM).

With `NC(=O)c1c(F)ccc(OC(CO)c2nc(-c3ccc(Cl)cc3)co2)c1F` (centres unmarked) [Compound 10, 3-(1-(4-(4-chlorophenyl)oxazol-2-yl)-2-hydroxyethoxy)-2,6-difluorobenzamide], the MIC is greater than 16 µg/mL.

In the case of `CCOC(=O)C(Oc1ccc(F)c(C(N)=O)c1F)c1nc(-c2ccc(Cl)cc2)cs1` (centres unmarked) [Compound 11, ethyl 2-(3-carbamoyl-2,4-difluorophenoxy)-2-(4-(4-chlorophenyl)thiazol-2-yl)acetate], the MIC is less than 0.25 µg/mL.

As for `NC(=O)c1c(F)ccc(OC(C(=O)O)c2nc(-c3ccc(Cl)cc3)co2)c1F` (centres unmarked) [Compound 12, 2-(3-carbamoyl-2,4-difluorophenoxy)-2-(4-(4-chlorophenyl)oxazol-2-yl)acetic acid], the MIC was greater than 16 µg/mL.

Regarding `NC(=O)c1c(F)ccc(OC(CO)c2nc(-c3ccc(Cl)cc3)cs2)c1F` (centres unmarked) [Compound 13, 3-(1-(4-(4-chlorophenyl)thiazol-2-yl)-2-hydroxyethoxy)-2,6-difluorobenzamide], the MIC was 0.25 to 1 µg/mL (≈ 0.609 to 2.43 µM).

`CCOc1ncc(-c2csc(C(C)Oc3ccc(F)c(C(N)=O)c3F)n2)s1` (centres unmarked) [Compound 14]: the MIC was less than 0.25 µg/mL.

On to `CCCc1oc(C(C)Oc2ccc(F)c(C(N)=O)c2F)nc1-c1ccc(OC)cc1` (centres unmarked) [Compound 15], for which the MIC was 0.25 to 1 µg/mL (≈ 0.6 to 2.4 µM).

Consider `C=CCc1oc(C(C)Oc2ccc(F)c(C(N)=O)c2F)nc1-c1ccc(OC(F)(F)F)cc1` (centres unmarked) [Compound 17, 3-(1-(5-allyl-4-(4-(trifluoromethoxy)phenyl)oxazol-2-yl)ethoxy)-2,6-difluorobenzamide], for which the MIC fell in the range of 0.25 to 1 µg/mL (≈ 0.534 to 2.14 µM).

Consider `CCC(Oc1ccc(F)c(C(N)=O)c1F)c1nc(-c2ccc(Cl)cc2)c(Br)o1` (centres unmarked) [Compound 18, 3-(1-(5-bromo-4-(4-chlorophenyl)oxazol-2-yl)propoxy)-2,6-difluorobenzamide], for which the MIC was in the range of 1 to 16 µg/mL (≈ 2.12 to 33.9 µM).

In the case of `CCCc1oc(C(C)Oc2ccc(F)c(C(N)=O)c2F)nc1-c1ccc(Cl)cc1` (centres unmarked) [Compound 19], the MIC was 0.25 to 1 µg/mL (≈ 0.594 to 2.38 µM).

Turning to `CCCc1oc(C(C)Oc2ccc(F)c(C(N)=O)c2F)nc1-c1ccc(OC(F)(F)F)cc1` (centres unmarked) [Compound 20, 2,6-difluoro-3-(1-(5-propyl-4-(4-(trifluoromethoxy)phenyl)oxazol-2-yl)ethoxy)benzamide], the MIC is less than 0.25 µg/mL.

As to `C=CCc1oc(C(CC)Oc2ccc(F)c(C(N)=O)c2F)nc1-c1ccc(Cl)cc1` (centres unmarked) [Compound 22, 3-(1-(5-allyl-4-(4-chlorophenyl)oxazol-2-yl)propoxy)-2,6-difluorobenzamide], the MIC is 1 to 16 µg/mL (≈ 2.31 to 37 µM).

Take `CCCC(Oc1ccc(F)c(C(N)=O)c1F)c1nc(-c2ccc(Cl)cc2)c(Br)o1` (centres unmarked) [Compound 23]: the MIC lay in the range of 1 to 16 µg/mL (≈ 2.06 to 32.9 µM).

For the molecule `CC(Oc1ccc(F)c(C(N)=O)c1F)c1nc(Br)c(Cl)s1` (centres unmarked) [Compound 24], the MIC was in the range of 1 to 16 µg/mL (≈ 2.51 to 40.2 µM).

Regarding `CCOc1cc2nc(C(C)Oc3ccc(F)c(C(N)=O)c3F)sc2nc1Br` (centres unmarked) [Compound 25, 3-(1-(5-bromo-6-ethoxythiazolo[5,4-b]pyridin-2-yl)ethoxy)-2,6-difluorobenzamide], the MIC was 0.25 to 1 µg/mL (≈ 0.546 to 2.18 µM).

For `CCCc1oc(C(CC)Oc2ccc(F)c(C(N)=O)c2F)nc1-c1ccc(Cl)cc1` (centres unmarked) [Compound 26, 3-(1-(4-(4-chlorophenyl)-5-propyloxazol-2-yl)propoxy)-2,6-difluorobenzamide], the MIC fell in the range of 0.25 to 1 µg/mL (≈ 0.575 to 2.3 µM).

Take `C=CCc1oc(C(CCC)Oc2ccc(F)c(C(N)=O)c2F)nc1-c1ccc(Cl)cc1` (centres unmarked) [Compound 28]: the MIC is 1 to 16 µg/mL (≈ 2.24 to 35.8 µM).

As for `CCOc1cnc2sc(C(C)Oc3ccc(F)c(C(N)=O)c3F)nc2c1` (centres unmarked) [Compound 29, 3-(1-(6-ethoxythiazolo[5,4-b]pyridin-2-yl)ethoxy)-2,6-difluorobenzamide], the MIC fell in the range of 1 to 16 µg/mL (≈ 2.64 to 42.2 µM).

Consider `CCCc1oc(C(CCC)Oc2ccc(F)c(C(N)=O)c2F)nc1-c1ccc(Cl)cc1` (centres unmarked) [Compound 30], for which the MIC fell in the range of 1 to 16 µg/mL (≈ 2.23 to 35.6 µM).

With `CN(C)C(=O)C(Oc1ccc(F)c(C(N)=O)c1F)c1nc(-c2ccc(Cl)cc2)cs1` (centres unmarked) [Compound 31, 3-(1-(4-(4-chlorophenyl)thiazol-2-yl)-2-(dimethylamino)-2-oxoethoxy)-2,6-difluorobenzamide], the MIC was in the range of 1 to 16 µg/mL (≈ 2.21 to 35.4 µM).

As for `CC(Oc1ccc(F)c(C(N)=O)c1F)c1nc(-c2ccc(C(F)(F)F)cc2)c(Cl)o1` (centres unmarked) [Compound 32], the MIC is 0.25 to 1 µg/mL (≈ 0.56 to 2.24 µM).

As to `CC(Oc1ccc(F)c(C(N)=O)c1F)c1nc(-c2ccc(Cl)cc2)ns1` (centres unmarked) [Compound 33, 3-(1-(3-(4-chlorophenyl)-1,2,4-thiadiazol-5-yl)ethoxy)-2,6-difluorobenzamide], the MIC was less than 0.25 µg/mL.

Regarding `CNC(=O)C(Oc1ccc(F)c(C(N)=O)c1F)c1nc(-c2ccc(Cl)cc2)cs1` (centres unmarked) [Compound 34, 3-(1-(4-(4-chlorophenyl)thiazol-2-yl)-2-(methylamino)-2-oxoethoxy)-2,6-difluorobenzamide], the MIC was less than 0.25 µg/mL.

Turning to `COc1ncc(-c2nc(C(C)Oc3ccc(F)c(C(N)=O)c3F)sc2Cl)s1` (centres unmarked) [Compound 35], the MIC is less than 0.25 µg/mL.

As to `CC(=O)OCC(Oc1ccc(F)c(C(N)=O)c1F)c1nc(-c2ccc(Cl)cc2)c(Br)o1` (centres unmarked) [Compound 36], the MIC lay in the range of 0.25 to 1 µg/mL (≈ 0.485 to 1.94 µM).

With `CC(=O)OCC(Oc1ccc(F)c(C(N)=O)c1F)c1nc(-c2ccc(C(F)(F)F)cc2)c(Br)o1` (centres unmarked) [Compound 37, 2-(5-bromo-4-(4-(trifluoromethyl)phenyl)oxazol-2-yl)-2-(3-carbamoyl-2,4-difluorophenoxy)ethyl acetate], the MIC is 0.25 to 1 µg/mL.

Turning to `NC(=O)c1c(F)ccc(OC(CO)c2nc(-c3ccc(Cl)cc3)c(Br)o2)c1F` (centres unmarked) [Compound 39, 3-(1-(5-bromo-4-(4-chlorophenyl)oxazol-2-yl)-2-hydroxyethoxy)-2,6-difluorobenzamide], the MIC was less than 0.25 µg/mL.
